Assay results as given in patent US10202380B2, “Pesticidally active tetracyclic derivatives with sulfur containing substituents” (Syngenta Participations AG, priority 2015, dated 2019).

What was measured:
Format in all cases: in vivo
Myzus persicae = Myzus persicae (Green Peach Aphid): Feeding/Contact Activity; details: foliar, 144 h
Method: Sunflower leaf discs were placed onto agar in a 24-well microtiter plate and sprayed with aqueous test solutions prepared from 10,000 ppm DMSO stock solutions. After drying, the leaf discs were infested with an aphid population of mixed ages. The samples were assessed for mortality 6 days after infestation.

Plutella xylostella = Plutella xylostella (Diamond Back Moth); details: 120 h, read-out: effect in at least one of the two categories (mortality or growth inhibition)
Method: (§1) 24-well microtiter plates with artificial diet were treated with aqueous test solutions prepared from 10,000 ppm DMSO stock solutions by pipetting. After drying, the plates were infested with L2 larvae (10 to 15 per well). The samples were assessed for mortality and growth inhibition in comparison to untreated samples 5 days after infestation.

Diabrotica balteata = Diabrotica balteata (Corn Root Worm); details: 96 h, read-out: effect in at least one of the two categories (mortality or growth inhibition)
Method: as §1, with “Maize sprouts placed onto an agar layer in 24-well” for “24-well”, “plates” for “plates with artificial diet”, “spraying.” for “pipetting.”, “(6” for “(10”, “10” for “15”, “4” for “5”

Euschistus heros = Euschistus heros (Neotropical Brown Stink Bug); details: in Glycine max, 120 h, read-out: effect in at least one of the two categories (mortality or growth inhibition)
Method: Soybean leaves on agar in 24-well microtiter plates were sprayed with aqueous test solutions prepared from 10,000 ppm DMSO stock solutions. After drying the leaves were infested with N2 nymphs. The samples were assessed for mortality and growth inhibition in comparison to untreated samples 5 days after infestation.

Spodoptera littoralis [1] = test: Spodoptera littoralis (Egyptian Cotton Leaf Worm), compound in agar absorbed by lettuce roots; details: 144 h, read-out: effect in at least one of the three categories (mortality, anti-feeding, or growth inhibition)
Method: Test compounds were applied by pipette from 10,000 ppm DMSO stock solutions into 24-well plates and mixed with agar. Lettuce seeds were placed onto the agar and the multi well plate was dosed by another plate which contained also agar. After 7 days the compound was absorbed by the roots and the lettuce grew into the lid plate. The lettuce leaves were then cut off into the lid plate. Spodoptera eggs were pipetted through a plastic stencil onto a humid gel blotting paper and the lid plate was closed with it. The samples were assessed for mortality, anti-feedant effect and growth inhibition in comparison to untreated samples 6 days after infestation.

Spodoptera littoralis [2] = test: Spodoptera littoralis (Egyptian Cotton Leaf Worm), sprayed cotton leaf discs; details: foliar, 72 h, read-out: control (mortality, anti-feedant effect, growth inhibition)
Method: Cotton leaf discs were placed onto agar in 24-well microtiter plates and sprayed with aqueous test solutions prepared from 10,000 ppm DMSO stock solutions. After drying the leaf discs were infested with five L1 larvae. The samples were assessed for mortality, anti-feeding effect, and growth inhibition in comparison to untreated samples 3 days after infestation. Control of Spodoptera littoralis by a test sample is given when at least one of the categories mortality, anti-feedant effect, and growth inhibition is higher than the untreated sample.

CCSc1c(-c2nc3cc(C(F)(F)F)n(CC)c(=O)c3n2C)sc2ccccc12 [Compound A1, 5-ethyl-2-(3-ethylsulfanylbenzothiophen-2-yl)-3-methyl-6-(trifluoromethyl)imidazo[4,5-c]pyridin-4-one]
≥ 80%: mortality at 200 ppm (Myzus persicae) | percent control (mortality or growth inhibition) at 200 ppm (Plutella xylostella) | percent control (mortality or growth inhibition) at 200 ppm (Diabrotica balteata) | percent control (mortality or growth inhibition) at 200 ppm (Euschistus heros)

CCn1c(C(F)(F)F)cc2nc(-c3sc4ccccc4c3S(=O)(=O)CC)n(C)c2c1=O [Compound A2, 5-ethyl-2-(3-ethylsulfonylbenzothiophen-2-yl)-3-methyl-6-(trifluoromethyl)imidazo[4,5-c] pyridin-4-one]
≥ 80%: percent control (mortality, anti-feedant effect or growth inhibition) at 12.5 ppm (Spodoptera littoralis [1]) | mortality at 200 ppm (Spodoptera littoralis [2]) | mortality at 200 ppm (Myzus persicae) | percent control (mortality or growth inhibition) at 200 ppm (Plutella xylostella) | percent control (mortality or growth inhibition) at 200 ppm (Diabrotica balteata) | percent control (mortality or growth inhibition) at 200 ppm (Euschistus heros)
